The text below walks through data of patent publication US10738056B2 (Aduro BioTech, Inc., priority 2017, dated 2020).

The target in assay [1] is Human cGAS amino acids 155-522 (Homo sapiens (Human), UniProt Q8N884). Nature of the assay: cGAS biochemical activity assay (ATP remaining, Kinase-Glo Max luminescence). The note with it: human cGAS 155-522, ATP remaining (Kinase-Glo Max); read-out: cGAS IC50.
For assay [2], the system named is MCP-1/CCL2 secretion by Trex1-KO BMM. Nature of the assay: Inhibition of MCP-1/CCL2 secretion by Trex1-KO bone marrow-derived macrophages. The settings on record: MCP-1 secretion. Type of assay: cell-based, mice. Set-up: key to BMM IC50 M (MCP-1): A: an IC50 value less than 5 μM; B: an IC50 value between 5 and 20 μM; where an IC50 value could not be calculated from the data. The protocol: (§1) A cellular assay can be used to asses the compounds of the invention for their ability to inhibit cytokine production. Bone marrow macrophages harvested from mice can be used to determine response as a function of compound concentration.
(§2) The inhibition of secreted cytokine was measured in bone marrow-derived macrophages (BMMs) from diseased mice to evaluate the potency of compounds of the invention as described herein. […] To derive bone marrow macrophages, marrow extracted from the femurs and tibias were harvested from Trex1-KO mice was cultured in growth media supplemented with macrophage colony-stimulating factor (M-CSF). Differentiated BMM were harvested and frozen for subsequent experimentation. For treatment with compound C1089 (see Example 13), a frozen stock of Trex1-KO BMM was thawed and 1×10^5 cells were plated in 96 well format. BMMs were treated with a dilution series of C1089 and incubated overnight at 37° C. 5% CO2, at which point cellular supernatants were harvested and stored at −80° C. for subsequent analysis. The media used for this dilution series was without FBS. Remaining cells were evaluated for viability using Cell Titer Glo 2.0 kit according to the manufacturer instructions. BMM supernatants were evaluated for the secreted cytokine […] (RANTES/CCL5) or for secreted cytokine monocyte chemoattractant protein 1 (MCP-1/CCL2) using cytometric bead array mouse Flex Set kits (BD Biosciences). Cytokine concentration was calculated from a standard curve and normalized to vehicle (DMSO) treated cells.

Assay [3] concerns cGAS/STING pathway in THP1 cells. Nature of the assay: THP1 cell-based cGAS/STING pathway activity assay (IRF-3-linked luciferase reporter). Put shortly: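 THP1 cells carrying an IRF-3-driven luciferase reporter were read across a range of compound concentrations, and IC50 values were derived from these concentration responses; the assay upper limit was 100 μM.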
For assay [4], the system named is RANTES/CCL5 secretion by Trex1-KO BMM. Nature of the assay: Inhibition of RANTES/CCL5 secretion by Trex1-KO bone marrow-derived macrophages. Type of assay: cell-based, mice. Set-up: key to BMM IC50 R (RANTES): A: an IC50 value less than 5 μM; B: an IC50 value between 5 and 20 μM; where an IC50 value could not be calculated from the data. The settings on record: RANTES secretion. Here is the method:
as §1, §2

Read-outs that look alike come from different tables or passages of the source. Bounds are passed on as bounds.

Human cGAS amino acids 155-522, sequence (Q8N884 157-522): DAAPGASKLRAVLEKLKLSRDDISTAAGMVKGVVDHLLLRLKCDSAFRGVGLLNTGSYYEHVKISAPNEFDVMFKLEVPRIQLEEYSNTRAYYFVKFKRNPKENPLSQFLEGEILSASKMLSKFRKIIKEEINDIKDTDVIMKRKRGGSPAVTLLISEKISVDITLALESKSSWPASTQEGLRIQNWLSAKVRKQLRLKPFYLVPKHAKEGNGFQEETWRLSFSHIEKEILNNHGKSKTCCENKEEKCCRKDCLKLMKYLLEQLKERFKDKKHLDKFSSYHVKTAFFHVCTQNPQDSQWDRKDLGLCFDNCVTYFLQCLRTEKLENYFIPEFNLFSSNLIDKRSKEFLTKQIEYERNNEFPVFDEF

With `COc1ccccc1NC(=O)c1c(C)[nH]c2c(C3CCCC3)c(C(F)(F)F)nn2c1=O` [Compound A1052, 3-cyclopentyl-N-(2-methoxyphenyl)-5-methyl-7-oxo-2-(trifluoromethyl)-4,7-dihydropyrazolo[1,5-a]pyrimidine-6-carboxamide], in assay [1], the half-inhibitory concentration (IC50) fell in the range of 20 to 250 µM. Also, in assay [2], the “BMM IC50 M (MCP-1)” value is reported as “C”.

For the compound `Cc1[nH]c2c(-c3ccccc3)c(C(F)(F)F)nn2c(=O)c1C(=O)Nc1ccccc1NS(=O)(=O)c1ccccc1` [Compound A1059, 5-methyl-7-oxo-3-phenyl-N-(2-(phenylsulfonamido)phenyl)-2-(trifluoromethyl)-4,7-dihydropyrazolo[1,5-a]pyrimidine-6-carboxamide], the IC50 was less than 20 µM in assay [3] (Homo sapiens, THP-1) and less than 20 µM in assay [1]. The “BMM IC50 M (MCP-1)” value in assay [2] is recorded as “C”.

Turning to `Cc1[nH]c2c(-c3ccccc3)c(C(F)(F)F)nn2c(=O)c1-c1nc2cccc(N)c2[nH]1` [Compound C1008, 6-(7-amino-1H-benzo[d]imidazol-2-yl)-5-methyl-3-phenyl-2-(trifluoromethyl)pyrazolo[1,5-a]pyrimidin-7(4H)-one], the half-inhibitory concentration (IC50) in assay [3] (Homo sapiens, THP-1) is more than 100 µM; in assay [1] it was 20 to 250 µM. Also, the “BMM IC50 M (MCP-1)” value in assay [2] is on record as “C”.

For `COc1cccc2oc(-c3c(C)[nH]c4c(-c5ccccc5)c(C(F)(F)F)nn4c3=O)nc12` [Compound C1014, 6-(4-methoxybenzo[d]oxazol-2-yl)-5-methyl-3-phenyl-2-(trifluoromethyl)pyrazolo[1,5-a]pyrimidin-7(4H)-one], the IC50 in assay [3] (Homo sapiens, THP-1) is less than 20 µM; in assay [1] it was less than 20 µM. Further, the “BMM IC50 M (MCP-1)” value in assay [2] is given as “C”.

For the compound `COCc1[nH]c2c(-c3ccccc3)c(C(F)(F)F)nn2c(=O)c1-c1c(COC)[nH]c2c(-c3ccccc3)c(C(F)(F)F)nn2c1=O` [Compound C1029, 5,5′-bis(methoxymethyl)-3,3′-diphenyl-2,2′-bis(trifluoromethyl)-[6,6′-bipyrazolo[1,5-a]pyrimidine]-7,7′(4H,4′H)-dione], the half-maximal inhibitory concentration (IC50) in assay [1] was in the range of 20 to 250 µM. For the same compound, the “BMM IC50 M (MCP-1)” value in assay [2] is on record as “C”. In addition, in assay [4], the “BMM IC50 R (RANTES)” value is reported as “C”.

For `COCc1[nH]c2c(-c3ccccc3)c(C(F)(F)F)nn2c(=O)c1-c1nc2c(OC)cccc2o1` [Compound C1056, 6-(4-methoxybenzo[d]oxazol-2-yl)-5-(methoxymethyl)-3-phenyl-2-(trifluoromethyl)pyrazolo[1,5-a]pyrimidin-7(4H)-one], the IC50 was less than 20 µM in assay [3] (Homo sapiens, THP-1) and less than 20 µM in assay [1]. The “BMM IC50 M (MCP-1)” value in assay [2] is “C”.

In the case of `CCOC(=O)Cc1[nH]c2c(-c3ccccc3)c(C(F)(F)F)nn2c(=O)c1-c1nc2c(OC)cccc2o1` [Compound C1140, ethyl 2-(6-(4-methoxybenzo[d]oxazol-2-yl)-7-oxo-3-phenyl-2-(trifluoromethyl)-4,7-dihydropyrazolo[1,5-a]pyrimidin-5-yl)acetate], in assay [1], the IC50 was in the range of 20 to 250 µM. For the same compound, the “BMM IC50 M (MCP-1)” value in assay [2] was “C”. Also, in assay [4], the “BMM IC50 R (RANTES)” value is “C”.

As to `COc1cccc2oc(-c3c(CC(=O)O)[nH]c4c(-c5ccccc5)c(C(F)(F)F)nn4c3=O)nc12` [Compound C1147, 2-(6-(4-methoxybenzo[d]oxazol-2-yl)-7-oxo-3-phenyl-2-(trifluoromethyl)-4,7-dihydropyrazolo[1,5-a]pyrimidin-5-yl)acetic acid], in assay [1], the IC50 lay within 20 to 250 µM. The “BMM IC50 M (MCP-1)” value in assay [2] is “C”. Further, in assay [4], the “BMM IC50 R (RANTES)” value was “C”.

For the compound `COc1cccc2c1nc(-c1c(C)[nH]c3c(-c4ccccc4)c(C(F)(F)F)nn3c1=O)n2C1CCCCC1` [Compound C1176, 6-(1-cyclohexyl-4-methoxy-1H-benzo[d]imidazol-2-yl)-5-methyl-3-phenyl-2-(trifluoromethyl)pyrazolo[1,5-a]pyrimidin-7(4H)-one], the IC50 in assay [1] lay in the range of 20 to 250 µM. Moreover, the “BMM IC50 M (MCP-1)” value in assay [2] is recorded as “C”. Further, the “BMM IC50 R (RANTES)” value in assay [4] is listed as “C”.

On to `COC1(c2nnc(-c3c(C)[nH]c4c(-c5ccccc5)c(C(F)(F)F)nn4c3=O)o2)CCCC1` [Compound D1055, 6-(5-(1-methoxycyclopentyl)-1,3,4-oxadiazol-2-yl)-5-methyl-3-phenyl-2-(trifluoromethyl)pyrazolo[1,5-a]pyrimidin-7(4H)-one], for which the IC50 in assay [3] (Homo sapiens, THP-1) is 20 to 100 µM; in assay [1] it was less than 20 µM.

Consider `Cc1[nH]c2c(-c3ccccc3)c(C(F)(F)F)nn2c(=O)c1-c1nnc(C2CCCCN2S(C)(=O)=O)o1` (stereo not drawn) [Compound D1056, 5-methyl-6-(5-(1-(methylsulfonyl)piperidin-2-yl)-1,3,4-oxadiazol-2-yl)-3-phenyl-2-(trifluoromethyl)pyrazolo[1,5-a]pyrimidin-7(4H)-one], for which the IC50 in assay [3] (Homo sapiens, THP-1) is more than 100 µM; in assay [1], less than 20 µM.

Consider `CC(=O)N1CCCCC1c1nnc(-c2c(C)[nH]c3c(-c4ccccc4)c(C(F)(F)F)nn3c2=O)o1` (stereo not drawn) [Compound D1057, 6-(5-(1-acetylpiperidin-2-yl)-1,3,4-oxadiazol-2-yl)-5-methyl-3-phenyl-2-(trifluoromethyl)pyrazolo[1,5-a]pyrimidin-7(4H)-one], for which the IC50 in assay [3] (Homo sapiens, THP-1) is 20 to 100 µM; in assay [1], less than 20 µM.

For `Cc1[nH]c2c(-c3ccccc3)c(C(F)(F)F)nn2c(=O)c1-c1nnc(C2(N)CCCC2)o1` [Compound D1062, 6-(5-(1-aminocyclopentyl)-1,3,4-oxadiazol-2-yl)-5-methyl-3-phenyl-2-(trifluoromethyl)pyrazolo[1,5-a]pyrimidin-7(4H)-one], the IC50 is more than 100 µM in assay [3] (Homo sapiens, THP-1) and less than 20 µM in assay [1].

With `Cc1[nH]c2c(-c3ccccc3)c(C(F)(F)F)nn2c(=O)c1-c1nnc(N2CCCCC2CN)o1` (stereo not drawn) [Compound D1070, 6-(5-(2-(aminomethyl)piperidin-1-yl)-1,3,4-oxadiazol-2-yl)-5-methyl-3-phenyl-2-(trifluoromethyl)pyrazolo[1,5-a]pyrimidin-7(4H)-one], the IC50 was more than 100 µM in assay [3] (Homo sapiens, THP-1) and less than 20 µM in assay [1].

In the case of `Cc1[nH]c2c(-c3ccccc3)c(C(F)(F)F)nn2c(=O)c1-c1nnc(C2=NCCCN2)o1` [Compound D1072, 5-methyl-3-phenyl-6-(5-(1,4,5,6-tetrahydropyrimidin-2-yl)-1,3,4-oxadiazol-2-yl)-2-(trifluoromethyl)pyrazolo[1,5-a]pyrimidin-7(4H)-one], the IC50 was more than 100 µM in assay [3] (Homo sapiens, THP-1) and less than 20 µM in assay [1].

`Cc1[nH]c2c(-c3ccccc3)c(C(F)(F)F)nn2c(=O)c1-c1nnc(NC(=N)N)o1` [Compound D1077, 1-(5-(5-methyl-7-oxo-3-phenyl-2-(trifluoromethyl)-4,7-dihydropyrazolo[1,5-a]pyrimidin-6-yl)-1,3,4-oxadiazol-2-yl)guanidine]: the IC50 in assay [3] (Homo sapiens, THP-1) was more than 100 µM; in assay [1], less than 20 µM.

For `Cc1[nH]c2c(-c3ccccc3)c(C(F)(F)F)nn2c(=O)c1-c1nnc(-c2nccc(O)n2)o1` [Compound D1078, 6-(5-(4-hydroxypyrimidin-2-yl)-1,3,4-oxadiazol-2-yl)-5-methyl-3-phenyl-2-(trifluoromethyl)pyrazolo[1,5-a]pyrimidin-7(4H)-one], the IC50 was more than 100 µM in assay [3] (Homo sapiens, THP-1) and less than 20 µM in assay [1].

On to `Cc1[nH]c2c(-c3ccccc3)c(C(F)(F)F)nn2c(=O)c1-c1nnc(-c2ccnc(O)c2)o1` [Compound D1085, 6-(5-(2-hydroxypyridin-4-yl)-1,3,4-oxadiazol-2-yl)-5-methyl-3-phenyl-2-(trifluoromethyl)pyrazolo[1,5-a]pyrimidin-7(4H)-one], for which the IC50 in assay [3] (Homo sapiens, THP-1) is more than 100 µM; in assay [1], less than 20 µM.

For `Cc1[nH]c2c(-c3ccccc3)c(C(F)(F)F)nn2c(=O)c1-c1nnc(-c2cccc(O)n2)o1` [Compound D1086, 6-(5-(6-hydroxypyridin-2-yl)-1,3,4-oxadiazol-2-yl)-5-methyl-3-phenyl-2-(trifluoromethyl)pyrazolo[1,5-a]pyrimidin-7(4H)-one], the IC50 was more than 100 µM in assay [3] (Homo sapiens, THP-1) and less than 20 µM in assay [1].

With `CO[C@@H]1CCCC(c2nnc(-c3c(C)[nH]c4c(-c5ccccc5)c(C(F)(F)F)nn4c3=O)o2)C1` (stereo partly drawn) [D1021 Iso-2], the concentration for half-maximal inhibition (IC50) is more than 100 µM in assay [3] (read-out: THP-1 IC50) and less than 20 µM in assay [1].

On to `CO[C@H]1CCCCC1c1nnc(-c2c(C)[nH]c3c(-c4ccccc4)c(C(F)(F)F)nn3c2=O)o1` (stereo partly drawn) [D1046 Iso-1], for which the IC50 in assay [3] (read-out: THP-1 IC50) and in assay [1] was less than 20 µM throughout.

Consider `CO[C@@H]1CCCC[C@H]1c1nnc(-c2c(C)[nH]c3c(-c4ccccc4)c(C(F)(F)F)nn3c2=O)o1` [D1046 Iso-3], for which the IC50 in assay [3] (read-out: THP-1 IC50) is more than 100 µM; in assay [1] it was less than 20 µM.

`CO[C@@H]1CCCC1c1nnc(-c2c(C)[nH]c3c(-c4ccccc4)c(C(F)(F)F)nn3c2=O)o1` (stereo partly drawn) [D1049 Iso-2]: the half-maximal inhibitory concentration (IC50) was more than 100 µM in assay [3] (read-out: THP-1 IC50) and less than 20 µM in assay [1].
